Source: US9926293B2, “Multivalent RAS binding compounds” (THE TRUSTEES OF COLUMBIA UNIVERSITY IN THE CITY OF NEW YORK, priority 2014, dated 2018)
pKd: −log10 of the molar value.

Key:
[1] = system: Mouse embryonic fibroblasts (MEFs), null Hras and Nras, floxed Kras; test: Growth inhibition of MEFs with floxed Kras locus; assay type: cell-based; details: 600 nM, 6 days, vs DMSO
Description: In parallel, cells were treated with DMSO or 4OHT at 600 nM for 6 days. […] Cells were then lysed and treated with a pro-fluorescent caspase 3/7 substrate (rhodamine 110 bis-N-CBZ-L-aspartyl-L-gluramyl-L-valyl-aspartic acid amide) for 16 hours and measured.
All cell culture assays were incubated at 37° C., 5% CO2 in media containing Dulbecco's Modified Eagle Medium (DMEM) with 10% fetal bovine serum (FBS) and 1% penicillin-streptomycin (PS). 384-well format for EC50 determination: cells were trypsinized, counted, and seeded into 384-well plates at 1,000 cells/well. After 12-16 hours, compounds (as 50 mM stocks in DMSO) were arrayed in an 8- or 16-point dilution series in 384-well polypropylene plates. Compound solutions were transferred at a 1:5 dilution into the assay plates. After 48 hours, a 50% Alamar blue solution was added to a final concentration of 10% Alamar blue. After 6 hours of incubation, fluorescence intensity was determined using a Victor3 plate reader (Perkin Elmer) with a 535 nm excitation filter and a 590 nm emission filter. All compound measurements were performed in triplicate. For experiments performed in 6-well format, cells were trypsinized, counted, and seeded into 6-well plates at 200,000 cells per well 16 h prior to use. […] After 24 hours, cells were trypsinized and viability was determined using Trypan Blue exclusion assay. […]

Microsomal stability = assay type: in vitro ADME; details: pH 7.4; mouse liver microsomes, 0.5 μM
Description: Test compounds (0.5 μM) were incubated at 37° C. for up to 45 minutes in 50 mM of potassium phosphate buffer (pH 7.4) containing microsomal protein (0.5 mg/mL) and an NADPH generating system (0.34 mg/mL β-nicotinamide adenine dinucleotide phosphate (NADP), 1.56 mg/mL glucose-6-phosphate, 1.2 units/mL glucose-6-phosphate dehydrogenase). At 0, 5, 15, 30 and 45 minute intervals an aliquot was taken and quenched with acetonitrile (ACN) containing an internal standard. No-cofactor controls at 45 minutes were prepared. Following completion of the experimentation, the samples were analyzed by LC-MS/MS using a Shimadzu HPLC and an Applied Biosystem AP 14000.

GppNHp-loaded KRASG12D = target: T1, GppNHp-loaded KRASG12D (Homo sapiens, UniProt P01116, G12D); test: Microscale thermophoresis, lysine NT-647-labeled GppNHp-loaded KRAS^G12D; assay type: binding; details: MST, GppNHp-bound KRAS^G12D, Table 6; read-out: KD
T1 construct: made in house; host or cells: Escherichia coli BL21-Gold (DE3)
Description: Microscale Thermophoresis
KRAS^G12D (250 μM) in 25 mM HEPES, 100 mM sodium chloride, 2 mM TCEP with 20 mM EDTA and 1 mM GppNHp was shaken at 220 rpm at 30° C. to remove the endogenous nucleotide, The solution was placed on ice for 2 minutes prior to the addition of 65 mM MgCl2. After an additional 10 minutes incubation on ice, 200 uL of a 10 uM solution of KRAS^G12D was combined with 200 uL of a 20 uM solution of NT-647-NHS-ester dye (from a 652.4 μM stock). The protein/dye mixture was rotated at 4° C. for 30 minutes, before being separated from the excess dye and buffer exchanged into 25 mM Tris, 100 mM sodium chloride, 2 mM TCEP, and 5 mM MgCl2 via a nap-5 column. The test compounds were arrayed across a 16-point dilution series consisting of 1.5% DMSO with 25 mM Tris, 100 mM NaCl, 2 mM TCEP, 5 mM MgCl2 and 0.05% tween-20. Thermophoretic movement of the fluorescently labeled protein with the inhibitors was performed using a Monolith NT.115 (Nanotemper Technologies). RALA and RHOA were purchased commercially from Abcam (RALA CN:ab102555, RHOA CN:ab101594).
In another set of experiments, the top D38-A59 two-site multivalent compounds were evaluated by a RAS pulldown using the RAS binding domain of CRAF (the top two hits are shown in FIG. 14D). This abrogation of binding between RAS and its effector protein was also evident in the RAS-RALGDS interaction (FIG. 14E). To quantify the binding of the two-site compounds to RAS, MST was performed again using lysine NT-647-labeled, GppNHp-loaded KRAS^G12D. […] The third (Y32) site was extended into (compound 34MEW95) using this scaffold.
Docking scores and dissociation constants for binding to GppNHp-bound KRAS^G12D (PDB:4DSN) were measured as set forth above for additional 2- and 3-site compounds by microscale thermophoresis.

KRAS^G12D⋅BODIPY-GTP = target: T2, KRAS^G12D⋅BODIPY-GTP (Homo sapiens, UniProt P01116, G12D); test: Nucleotide displacement assay with BODIPY-GTP (fluorescence polarization); assay type: binding; details: 2.5 μM KRAS^G12D⋅BODIPY-GTP, 12 hours
T2 construct: made in house; host or cells: Escherichia coli BL21-Gold (DE3)
Description: Nucleotide Displacement Assay
To investigate whether compounds were binding to the same site as GTP, a fluorescent polarization assay was implemented using fluorescently-labeled BODIPY-GTP as a probe. When BODIPY-GTP is free in solution, it has a low polarization. However, when BODIPY-GTP is bound to K-Ras protein, the polarization intensity is high. K-Ras G12D bound to BODIPY-GTP was incubated with different concentrations of ligand or unlabeled GTP or GDP in buffer containing 25 mM Tris-HCl, pH 8, 100 mM NaCl, 5 mM MgCl2, 1 mM EDTA, and 1 mM TCEP. The final concentration of K-Ras G12D bound to BODIPY-GTP in each well was 2.5 μM. The samples were incubated at 25° C. for 12 hours with gentle shaking to allow for the slow intrinsic nucleotide release reaction to take place. The change in fluorescence was measured on a Victor3 plate reader (Perkin Elmer) in 384-well black low-volume plates (Corning, Inc.). The BODIPY-GTP fluorophore was excited at 485 nm and emission was monitored at 535 nm.

[2] = system: caspases 3 and 7 in HT-1080 (NRAS^Q61K) cells; test: Caspase 3/7 activation assay; assay type: cell-based; details: staurosporine 5 μM, 24 hours
Description: Caspase 3/7 Activation Assay
HT-1080 cells were seeded into 384-well plates at 1,000 cells/well. After 12-16 hours, compounds (as 50 mM stocks in DMSO) were arrayed in a dilution series in 384-well polypropylene plates. Compound solutions were transferred at a 1:5 dilution into the assay plates for a total volume of 40 μL. After 24 hours, 8 μL of a 1:100 solution of rhodamine 110 bis-(N-CBZ-1-aspartyl-1-glutamyl-1-valyl-aspartic acid amide) to lysis buffer (APO-1, Promega) was added and the plate was wrapped in aluminum foil and incubated at room temperature for 16 hours. Fluorescence intensity was then determined using a Victor3 plate reader (Perkin Elmer) with a 490 nm excitation filter and a 535 nm emission filter. A viability curve was performed in parallel with the same incubation time using the procedure described in the “cell viability assays” section.

T1 sequence (P01116 1-169 isoform P01116-2 G12D): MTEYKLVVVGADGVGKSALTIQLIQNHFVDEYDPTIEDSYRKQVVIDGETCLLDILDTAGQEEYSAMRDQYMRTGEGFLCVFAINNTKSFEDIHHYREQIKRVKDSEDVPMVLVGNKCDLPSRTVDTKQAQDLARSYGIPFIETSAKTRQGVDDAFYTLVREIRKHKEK
T2 sequence (P01116 1-169 isoform P01116-2 G12D): as above

Row | pKd (GppNHp-loaded KRASG12D) | Molecule | also measured
1 | 4.44 | O=C(NCCCn1cc(-c2cccc(F)c2)c2c(CN3CCN(CCOc4ccc(Cl)cc4)CC3)cccc21)C1(NCc2ccc(OCc3ccc(F)cc3)c(Cl)c2)CCNCC1 [Compound 35MEW12, 4-((3-chloro-4-((4-fluorobenzyl)oxy)benzyl)amino)-N-(3-(4-((4-(2-(4-chlorophenoxy)ethyl)piperazin-1-yl)methyl)-3-(3-fluorophenyl)-1H-indol-1-yl)propyl)piperidine-4-carboxamide] | 
2 | 4.59 | COc1cc(COc2ccc(CNC3(C(=O)NCCCn4cc(-c5ccc(OC(F)(F)F)cc5)c5cc(CN6CCN(Cc7c(Cl)cccc7Cl)CC6)ccc54)CCNCC3)cc2OC)cc(OC)c1 [Compound 43MEW63] | 
3 | 5.10 | O=C(NCCCn1cc(-c2ccc(OC(F)(F)F)cc2)c2cc(CN3CCN(Cc4c(Cl)cccc4Cl)CC3)ccc21)C1(NCc2ccc(OCc3cc(C(F)(F)F)cc(C(F)(F)F)c3)cc2)CCNCC1 [Compound 43MEW65, 4-((4-((3,5-bis(trifluoromethyl)benzyl)oxy)benzyl)amino)-N-(3-(5-((4-(2,6-dichlorobenzyl)piperazin-1-yl)methyl)-3-(4-(trifluoromethoxy)phenyl)-1H-indol-1-yl)propyl)piperidine-4-carboxamide] | 
4 | 4.62 | CC(C)Oc1ccccc1-c1ccc(CNC2(C(=O)NCCCn3cc(-c4ccc(OC(F)(F)F)cc4)c4cc(CN5CCN(Cc6c(Cl)cccc6Cl)CC5)ccc43)CCNCC2)nc1 [Compound 43MEW73, N-(3-(5-((4-(2,6-dichlorobenzyl)piperazin-1-yl)methyl)-3-(4-(trifluoromethoxy)phenyl)-1H-indol-1-yl)propyl)-4-(((5-(2-isopropoxyphenyl)pyridin-2-yl)methyl)amino)piperidine-4-carboxamide] | 

Continued, molecule first:

Row | Molecule | pKd (GppNHp-loaded KRASG12D) | also measured
5 | 4-hydroxytamoxifen [Compound 4OHT, reference compound] |  | growth inhibition [1]: 91%
6 | CCOc1ccc2ccc(=O)oc2c1 [7-ethoxycoumarin, reference compound] |  | half-life at 0.5 μM (Microsomal stability): 3.9 min
7 | O=C(NCCCn1cc(-c2c(C(F)(F)F)cccc2C(F)(F)F)c2cc(CN3CCN(Cc4cc(C(F)(F)F)cc(C(F)(F)F)c4)CC3)ccc21)C1CNCCN1 (stereo not shown) [Compound 32MEW56, N-(3-(5-((4-(3,5-bis(trifluoromethyl)benzyl)piperazin-1-yl)methyl)-3-(2,6-bis(trifluoromethyl)phenyl)-1H-indol-1-yl)propyl)piperazine-2-carboxamide] | < 2.00 | 
8 | COc1ccccc1-c1cn(CCCNC(=O)C2(N)CCNCC2)c2cccc(CN3CCN(CCOc4ccc(Cl)cc4)CC3)c12 [Compound 34MEW45, 4-amino-N-(3-(4-((4-(2-(4-chlorophenoxy)ethyl)piperazin-1-yl)methyl)-3-(2-methoxyphenyl)-1H-indol-1-yl)propyl)piperidine-4-carboxamide] | 2.87 | 
9 | COc1cc(CN2CCN(Cc3ccc4c(c3)c(-c3ccc(OC)cc3OC)cn4CCCNC(=O)C3CNCCN3)CC2)cc(OC)c1 (stereo not shown) [Compound 36MEW3, N-(3-(5-((4-(3,5-dimethoxybenzyl)piperazin-1-yl)methyl)-3-(2,4-dimethoxyphenyl)-1H-indol-1-yl)propyl)piperazine-2-carboxamide] | 3.64 | 
10 | Nc1nc2c(ncn2[C@@H]2O[C@H](COP(=O)(O)OP(=O)(O)O)[C@@H](O)[C@H]2O)c(=O)[nH]1 [GDP] |  | displacement of BODIPY-GTP (KRAS^G12D⋅BODIPY-GTP): can displace
11 | Nc1nc2c(ncn2[C@@H]2O[C@H](COP(=O)(O)OP(=O)(O)OP(=O)(O)O)[C@@H](O)[C@H]2O)c(=O)[nH]1 [GTP] |  | displacement of BODIPY-GTP (KRAS^G12D⋅BODIPY-GTP): can displace
12 | CN[C@@H]1C[C@H]2O[C@@](C)([C@@H]1OC)n1c3ccccc3c3c4c(c5c6ccccc6n2c5c31)C(=O)NC4 [staurosporine, reference compound] |  | fluorescence of caspase 3/7 substrate ([2]; 31MEW44 5 μM, 34MEW43 10 μM, 34MEW95 5 μM): Increased fluorescence; fluorescence of caspase 3/7 substrate ([2]; 31MEW44 2.5 and 5 μM): Increased fluorescence
